Here are results for two compounds from publication PMC10882719 (Frontiers in Neuroscience, 2024).

Assay type in all cases: cell-based
Assay [1] concerns the target T1, 168 GPCRs (Homo sapiens, UniProt P18825).
T1 construct: host or cells: PathHunter cell lines
T1 sequence (P18825 1-462): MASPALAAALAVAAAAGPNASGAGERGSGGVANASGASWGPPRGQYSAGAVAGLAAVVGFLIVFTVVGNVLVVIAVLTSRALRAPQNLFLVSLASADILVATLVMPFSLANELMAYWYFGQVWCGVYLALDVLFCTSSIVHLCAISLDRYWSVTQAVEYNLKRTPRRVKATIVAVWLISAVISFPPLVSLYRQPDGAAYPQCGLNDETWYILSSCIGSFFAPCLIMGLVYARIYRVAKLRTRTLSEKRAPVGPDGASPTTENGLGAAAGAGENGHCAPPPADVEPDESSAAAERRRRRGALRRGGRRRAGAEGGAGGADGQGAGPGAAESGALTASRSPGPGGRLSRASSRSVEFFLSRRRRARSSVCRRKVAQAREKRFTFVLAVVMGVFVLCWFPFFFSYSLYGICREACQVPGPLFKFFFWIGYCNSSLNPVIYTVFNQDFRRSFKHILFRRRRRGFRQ
The note with it: ADRA2C.

The target in assay [2] is T2, 168 GPCRs (Homo sapiens, UniProt P21554).
T2 construct: host or cells: PathHunter cell lines
T2 sequence (P21554 whole entry): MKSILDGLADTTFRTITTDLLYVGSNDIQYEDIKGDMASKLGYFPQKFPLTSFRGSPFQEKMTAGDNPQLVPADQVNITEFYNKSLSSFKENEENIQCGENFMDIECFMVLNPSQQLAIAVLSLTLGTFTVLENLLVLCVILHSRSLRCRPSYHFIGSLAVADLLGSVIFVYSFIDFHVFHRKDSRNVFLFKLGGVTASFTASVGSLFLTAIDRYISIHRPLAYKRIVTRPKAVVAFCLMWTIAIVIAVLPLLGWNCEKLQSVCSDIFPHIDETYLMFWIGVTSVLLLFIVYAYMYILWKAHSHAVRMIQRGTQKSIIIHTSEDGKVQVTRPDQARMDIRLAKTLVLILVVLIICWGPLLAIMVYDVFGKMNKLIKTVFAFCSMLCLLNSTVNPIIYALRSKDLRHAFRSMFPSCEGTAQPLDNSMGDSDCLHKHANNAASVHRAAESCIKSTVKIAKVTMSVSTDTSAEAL

Assay [3] deals with T3, 168 GPCRs (Homo sapiens, UniProt P25024).
T3 construct: host or cells: PathHunter cell lines
T3 sequence (P25024 1-350): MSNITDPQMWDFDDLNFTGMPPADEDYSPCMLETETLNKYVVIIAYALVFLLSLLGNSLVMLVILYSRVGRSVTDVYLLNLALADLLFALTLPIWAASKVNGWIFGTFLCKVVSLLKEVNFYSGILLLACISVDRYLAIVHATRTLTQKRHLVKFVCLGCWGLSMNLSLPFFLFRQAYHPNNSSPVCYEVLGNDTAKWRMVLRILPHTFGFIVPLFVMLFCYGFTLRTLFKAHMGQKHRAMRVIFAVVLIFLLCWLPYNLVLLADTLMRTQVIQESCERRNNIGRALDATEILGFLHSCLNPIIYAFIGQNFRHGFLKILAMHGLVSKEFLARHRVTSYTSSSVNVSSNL

For assay [4], the target named is T4, 168 GPCRs (Homo sapiens, UniProt P30939).
T4 construct: host or cells: PathHunter cell lines
T4 sequence (P30939 1-366): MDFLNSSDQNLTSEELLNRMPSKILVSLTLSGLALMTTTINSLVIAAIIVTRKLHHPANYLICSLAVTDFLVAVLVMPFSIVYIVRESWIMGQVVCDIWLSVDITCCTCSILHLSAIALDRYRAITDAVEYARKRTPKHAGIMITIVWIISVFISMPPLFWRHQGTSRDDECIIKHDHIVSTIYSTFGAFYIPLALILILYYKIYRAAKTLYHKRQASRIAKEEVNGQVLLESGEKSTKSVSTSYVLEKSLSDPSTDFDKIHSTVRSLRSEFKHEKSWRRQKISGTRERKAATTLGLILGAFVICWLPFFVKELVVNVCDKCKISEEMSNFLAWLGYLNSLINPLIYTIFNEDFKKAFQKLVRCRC
The note with it: HTR1F.

Assay [5] concerns the target T5, 168 GPCRs (Homo sapiens, UniProt P35367).
T5 construct: host or cells: PathHunter cell lines

Assay [6] has as its target T6, 168 GPCRs (Homo sapiens, UniProt Q5NUL3).
T6 construct: host or cells: PathHunter cell lines
T6 sequence (Q5NUL3 1-361): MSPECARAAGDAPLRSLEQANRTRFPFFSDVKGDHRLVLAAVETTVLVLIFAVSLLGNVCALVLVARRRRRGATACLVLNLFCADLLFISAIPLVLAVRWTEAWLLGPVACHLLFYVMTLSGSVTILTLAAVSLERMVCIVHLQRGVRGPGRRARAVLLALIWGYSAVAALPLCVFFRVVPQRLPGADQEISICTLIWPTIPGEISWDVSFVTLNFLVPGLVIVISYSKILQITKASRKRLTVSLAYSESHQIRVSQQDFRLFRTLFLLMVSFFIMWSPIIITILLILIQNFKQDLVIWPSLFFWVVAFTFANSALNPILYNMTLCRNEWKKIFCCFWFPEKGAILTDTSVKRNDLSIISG

Read-outs that look alike come from different tables or passages of the source.

T5 sequence (P35367 whole entry): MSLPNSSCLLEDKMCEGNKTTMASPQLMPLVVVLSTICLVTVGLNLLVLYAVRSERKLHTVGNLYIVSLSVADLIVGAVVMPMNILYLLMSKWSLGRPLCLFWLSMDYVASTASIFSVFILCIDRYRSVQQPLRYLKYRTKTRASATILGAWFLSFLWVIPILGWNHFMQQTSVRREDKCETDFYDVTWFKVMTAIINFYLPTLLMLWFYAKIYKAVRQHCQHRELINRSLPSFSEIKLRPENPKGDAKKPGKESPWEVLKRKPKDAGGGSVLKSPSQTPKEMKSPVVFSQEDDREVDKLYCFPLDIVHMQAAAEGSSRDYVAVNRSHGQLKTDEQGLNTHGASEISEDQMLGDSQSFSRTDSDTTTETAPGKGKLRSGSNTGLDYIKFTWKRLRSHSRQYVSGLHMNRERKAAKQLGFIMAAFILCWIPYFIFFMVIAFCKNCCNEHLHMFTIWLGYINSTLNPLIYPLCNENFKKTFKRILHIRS

Take `CNC(C)C(=O)c1ccc2c(c1)OCO2` (stereo not drawn) [methylone]: the “% Agonist Activity” value was -2.5% on 168 GPCRs [1] (1 uM); 0.1% at 168 GPCRs [1] (10 uM); -0.4% on 168 GPCRs [2] (CNR1, 1 uM); -2.7% on 168 GPCRs [2] (CNR1, 10 uM); -0.5% at 168 GPCRs [3] (CXCR1, 1 uM); -0.1% at 168 GPCRs [3] (CXCR1, 10 uM). In addition, the “% Agonist Activity” value is on record as -4.4% at 168 GPCRs [4] (1 uM); -3% on 168 GPCRs [4] (10 uM); 3% on 168 GPCRs [5] (HRH1, 1 uM); 2.5% on 168 GPCRs [5] (HRH1, 10 uM); -5.1% on 168 GPCRs [6] (GPR120, 1 uM); -5.8% at 168 GPCRs [6] (GPR120, 10 uM). The “% Antagonist Activity” value at 168 GPCRs [1] (1 uM) was -4.3%; on 168 GPCRs [1] (10 uM), 17.6%; on 168 GPCRs [2] (CNR1, 1 uM) it was -3.5%; on 168 GPCRs [2] (CNR1, 10 uM) it was -17.1%; on 168 GPCRs [3] (CXCR1, 1 uM), 12.1%; on 168 GPCRs [3] (CXCR1, 10 uM) it was 3.1%. In addition, the “% Antagonist Activity” value at 168 GPCRs [4] (1 uM) is 14.4%; at 168 GPCRs [4] (10 uM), 9.2%; at 168 GPCRs [5] (HRH1, 1 uM), -18%; on 168 GPCRs [5] (HRH1, 10 uM) it was -2.2%; at 168 GPCRs [6] (GPR120, 1 uM) it was 46.5%; on 168 GPCRs [6] (GPR120, 10 uM), 40.3%.

Turning to `CNC(C)Cc1ccc2c(c1)OCO2` (stereo not drawn) [MDMA, 3,4-Methylenedioxy methamphetamine, reference compound], the “% Agonist Activity” value on 168 GPCRs [1] (1 uM) is 3.9%; on 168 GPCRs [1] (10 uM), 6.9%; on 168 GPCRs [2] (CNR1, 1 uM), -0.5%; at 168 GPCRs [2] (CNR1, 10 uM) it was 0.1%; on 168 GPCRs [3] (CXCR1, 1 uM) it was -0.4%; at 168 GPCRs [3] (CXCR1, 10 uM) it was -0.3%. For the same compound, the “% Agonist Activity” value on 168 GPCRs [4] (1 uM) is listed as 10.9%; on 168 GPCRs [4] (10 uM), 8.5%; on 168 GPCRs [5] (HRH1, 1 uM) it was 3.1%; at 168 GPCRs [5] (HRH1, 10 uM), 3.8%; at 168 GPCRs [6] (GPR120, 1 uM), -3.7%; on 168 GPCRs [6] (GPR120, 10 uM), -4.4%. The “% Antagonist Activity” value on 168 GPCRs [1] (1 uM) is 16.4%; at 168 GPCRs [1] (10 uM), 38.1%; at 168 GPCRs [2] (CNR1, 1 uM), 7.8%; on 168 GPCRs [2] (CNR1, 10 uM), 11.2%; at 168 GPCRs [3] (CXCR1, 1 uM), -2.4%; at 168 GPCRs [3] (CXCR1, 10 uM), -4.6%. In addition, the “% Antagonist Activity” value on 168 GPCRs [4] (1 uM) is listed as 14.6%; on 168 GPCRs [4] (10 uM), 10.8%; at 168 GPCRs [5] (HRH1, 1 uM), 13.7%; on 168 GPCRs [5] (HRH1, 10 uM), 38.4%; at 168 GPCRs [6] (GPR120, 1 uM), 11.3%; at 168 GPCRs [6] (GPR120, 10 uM), 8.8%.
